# According to patent US8022043B2, “Ceramide derivatives as modulators of immunity and autoimmunity” (Albert Einstein College of Medicine of Yeshiva University, priority 2004, dated 2011):
# What was measured:
# NK T hybridoma DN32.D3 = assay: Murine NK T cell hybridoma stimulation assay (IL-2 release), RMA-S.mCD1d as APC; assay type: cell-based, mouse; conditions: presented by RMA-S/CD1d cells
# Description: FIG. 5. […] NK T hybridoma DN32.D3 was cultured with CD1d-transfected RMA-S cells in microtiter plate wells. Each ceramide-like glycolipid was titrated over a concentration range from 0.5-500 nM, and supernatants were harvested after 24 hours for measurement of IL-2 release. Units of activity were calculated as the reciprocal of the concentration of ceramide-like glycolipid required to give a half maximal release of IL-2, and all values were normalized to the activity of KRN7000 (defined as 1 Unit). The dotted line indicates the level of activity for KRN7000. The structures of two ceramide-like glycolipids with markedly elevated activity relative to KRN7000 are shown.
# The ability of the compounds to activate NK T cell hybridomas in the presence of various types of cells expressing CD1d reported in FIG. 5A was determined using a murine NK T cell hybridoma stimulation assay. […] Relative potencies of the ceramide-like glycolipids were calculated from the reciprocal effective concentrations at half-maximal response (1/EC50), and expressed as units by normalization to the observed potency for KRN7000.
# IL-2 production by NK T hybridoma DN32D3 in response to eight selected ceramide-like glycolipids, was determined using three different cell types as antigen presenting cells. […]
# C57BL/6 mice = assay: Serum IL-4 and IFNγ after a single i.p. injection; assay type: in vivo
# Description: Serum levels of L-4 and IFNγ after a single injection of DB01-1, DB03-4, or DB03-5 are shown. C57BL/6 mice (11-13 weeks old) were given a single i.p. injection of 4.8 nanomoles of the compounds or phosphate buffered saline (PBS)/vehicle control. Serum cytokine levels were measured 2 and 20 hours later by capture ELISA. Bars show means of three mice, with standard deviation. Note that DB01-1 has nearly identical structure to KRN7000 (C24 fatty acid as compared to C26) and has activity that is indistinguishable from KRN7000 in multiple bioassays. We use DB01-1 as a “KRN7000 mimic” because it has been synthesized by our group and is readily available for our studies, and KRN7000 was unavailable due to license restrictions.
# A most intriguing property of KRN7000 analogues is that in some cases they may elicit immune responses that are qualitatively different from those that occur following stimulation with the parent compound. […] This selective activation of IL-4 production by NK T cells was proposed to be the basis for the enhanced therapeutic effects of OCH in the EAE model of central nervous system autoimmune disease. We have observed a similar in vivo effect on the nature of the NK T cell response using several of our ceramide-like glycolipids. […] These responses are similar to those seen for DB01-1, an analogue that is structurally almost identical to KRN7000 (C24 fatty acid instead of C26, otherwise identical) and indistinguishable in terms of its activity in our hands. […] This selective IL-4 induction is virtually identical to that reported for the OCH analogue, and thus illustrates the potential for amino substituted analogues of KRN7000 to induce qualitatively different immunomodulatory effects in vivo. The results reported in FIG. 9 were obtained by measuring serum levels of IL-4 and IFNγ after administering a single injection of […], DB03-4, or DB03-5 to C57BL/6 mice. C57BL/6 mice (11-13 weeks old) were given a single i.p. injection of 4.8 nanomoles of the ceramide-like glycolipids or PBS/vehicle control. Serum cytokine levels were measured 2 and 20 hours later by capture ELISA. Bars show means of three mice, with standard deviation.
# For experiments involving in vivo treatment of mice with the ceramide-like glycolipids, the ceramide-like glycolipids were administered by i.p. or i.v. injection in 0.2 ml PBS+0.025% Tween-20, or in vehicle alone. A typical dose is about 4-5 nmoles per animal per injection. Representative references for administering an α-galactosyl ceramide to mice by i.p., i.v. or p.o. routes are S. Sharif et al., Activation of natural killer T cells by alpha-galactosylceramide treatment prevents the onset and recurrence of autoimmune Type 1 diabetes, Nat. Med., Sep. 7, 2001, (9):1057-62 and K. Miyamoto et al., A synthetic glycolipid prevents autoimmune encephalomyelitis by inducing TH2 bias of natural killer T cells, Nature. Oct. 4, 2001, 413(6855):5314.
# iNKT cells = assay: In vitro cytokine modulation, murine cell assay system; assay type: cell-based
# Source text: The term iNKT cells, as used herein, mean the specific subset of CD1d-dependent T cells that expresses the invariant TCRα chain rearrangement consisting of Vα14-Jα18 in mice, and Vα24-Jα18 in humans. These cells are uniformly reactive to α-galactosylceramides presented by CD1d. These cells are also referred to as “Type 1” NKT cells, and the distinction between the different types of NKT cells and the nomenclature relating to this are summarized in the publication by Godfrey et al., Nat Rev Immunol. 2004 March; 4(3):231-7. Methods for determining cytokine production by iNKT cells in response to CD1d-presented glycolipids for determination of strong or weak agonist activity are described in Yu K O A, Im J S, Molano A, Dutronc Y, Illarionov P A, Forestier C, Fujiwara N, Arias I, Miyake S, Yamamura T, Chang Y-T, Besra G S, Porcelli S A, Modulation of CD1d-restricted NKT cell responses using N-acyl variants of α-galactosylceramides, Proc. Nat. Acad. Sci. (USA), 102:3383-8 (2005), see also Godfrey D I et al., Nat Rev Immunol. 2004 March; 4(3):231-7.
# [1] = test system: T cell antigen receptors of human NKT cells; assay: Glycolipid human CD1d tetramer binding; conditions: normal blood specimens
structure (smiles),measurement,setting,value
CCCCC/C=C\C/C=C\CCCCCCCCCC(=O)N[C@@H](COC1OC(CO)C(O)C(O)C1O)[C@H](O)[C@H](O)CCCCCCCCCCCCCC (some centres unmarked) [DB03-4],potency relative to KRN7000 (IL-2 production),NK T hybridoma DN32.D3,extremely enhanced potency
same,serum IFNγ response,C57BL/6 mice; 20 hours after single i.p. injection of 4.8 nanomoles,not seen
same,serum IL-4 response,C57BL/6 mice; two hours after single i.p. injection of 4.8 nanomoles,strong IL-4 response
same,cytokine bias,iNKT cells,bias towards inducing Type 2 cytokines
same,IL-4 induction,iNKT cells; in vitro,strong inducers of IL-4
same,IFNγ induction,"iNKT cells; in vitro, DB03-3: in some murine strains",blunted IFNγ
same,in vitro activity at modulating cytokines,iNKT cells; murine cell assay system,show in vitro activity
same,binding of glycolipid human CD1d tetramers to human NKT cells,[1],bind strongly
